Assay results as given in publication PMC10885103, “Deciphering the Synthetic and Refolding Strategy of a Cysteine-Rich Domain in the Tumor Necrosis Factor Receptor (TNF-R) for Racemic Crystallography Analysis and D-Peptide Ligand Discovery” (ACS Bio & Med Chem Au, 2023).
One block for each sequence: values may come before it. Where no end group is shown, it is not given here.

How the values were obtained:
D-TNFR-1 CRD2 [1] = assay: Mirror-image phage display against D-TNFR-1 CRD2; format: binding; conditions: after three rounds of biopanning, D-TNFR-1 CRD2 3 μg on streptavidin/neutravidin beads
Source text: The receptor mimic was subjected to mirror-image molecular screening as a means of seeking ligands that inhibit TNF-α binding. […] A D-peptide inhibitor could be potentially tested as a candidate against TNFR-1-related inflammatory diseases localized in the protease-rich gastrointestinal tract.[10b],[20] Consequently, the D-TNFR-1 CRD2 serves as a receptor mimic in mirror-image phage display (MIPD), a molecular screening technique that exploits the concept of reflection symmetry for the discovery of peptide ligands in opposite chirality.[5b] To conduct the experiment, D-TNFR-1 CRD2 was biotinylated at the C-terminus, immobilized onto streptavidin-coated beads, and subjected to phage display. Subsequently, bacteriophage libraries[21] consisted of the sequence format CX9C where X could be any canonical amino acid and terminal cysteine residues used for cyclization were tested. […] This was confirmed by an additional phage display experiment, in which the WLG motif was fixed in the format CX4WLGX2C.
The peptides were linked to the gene-3 coat protein (pIII) via a trialanine (Ala-Ala-Ala) spacer. Gel purified DNA encoding the libraries were ligated into the pCantab 5E phagemid vector, and transformed into chemically competent E. coli TG1. 20-fold excess of helper phage M13KO7 was used during rescue and amplification of the bacteriophages. […]

D-TNFR-1 CRD2 [2] = assay: GCI (RAPID, repeated analyte pulses of increasing duration) of TCPB-E isomers on D-TNFR-1 CRD2; format: binding; conditions: fixed concentration of each conformer, D-TNFR-1 CRD2, blank subtracted
Procedure: (§1) Grating-coupled interferometry (GCI) experiments were performed on a Creoptix WAVEsystem using 4PCH-STA WAVE sensor chips (polycarboxylate surface, streptavidin coated) or 4PCH WAVE sensor chips (polycarboxylate surface) as indicated. Chips were first conditioned with borate buffer (0.1 M sodium borate, pH 9, 1 M Sodium chloride).
S4. Identification of active binding peptide conformer
Figure S4.1: Six possible conformers of TCPB, oxidized with either glutathione (TCPB-E-G) or cysteine […]
TCPB solution phase oxidation […]
form. In a 10 mL round bottomed flask, the peptide (50 μM) was dissolved in 5 mL of buffer (0.1 M phosphate, pH 6) containing 0.5 mM of either cystine or glutathione. The reaction mixtures were stirred for six hours at room temperature. Reaction completion was confirmed by LCMS, by taking 10 μL of reaction mixture and diluting with 90 μL of distilled water. The two disulfide bonded products for each cysteine and glutathione mixture were isolated by semi-preparative HPLC.
(§2) (1 picture or pasted object on this page, not shown here)
Figure S4.6: LCMS disulfide bond mapping of isolated TCPB-E peak i, oxidized with glutathione disulfide.
Lyophilized peptide was digested with chymotypsin (0.1 mg/mL) in phosphate buffer ( 0.1 M, pH 6) at room temperature for 12 hours. […]

D-TNFR-1 CRD2 [3] = assay: GCI single-cycle binding of TCPB-E-C1 and -C4 isomers to D-TNFR-1 CRD2; conditions: single cycle of association and dissociation, 50 μM of each peptide conformer, blank subtracted
Procedure: as §1
Figure S4.10: Grating-coupled interferometry (GCI) analysis of TCPB-E-C1 and -C4 isomers binding to
D-TNFR-1 CRD2. A single cycle of association and dissociation were passed over the sensor surface, with
μM of each peptide conformer. Sensograms shown are blank subtracted (target flow cell - flow cell with 50
TCPB-E-C4. The TCPB-E-C1 conformer was thus identified as the active form of the TCPB peptide.
as §2

Sequence: CFHCIWLGDEC
phage display selection outcome, experiment 2 (D-TNFR-1 CRD2 [1]; CX4WLGX2C library): most abundant peptide sequence

sensor response/binding of TCPB-E isomers to D-TNFR-1 CRD2 (D-TNFR-1 CRD2 [3]): highest sensor response
Sequence: CFHCIWLGDEC (disulfide (positions not given here)) [TCPB, intramolecular disulfide bond between residues 4–11, cysteinylated at position 1]
sensor response with respect to concentration among TCPB-E isomers (D-TNFR-1 CRD2 [2]): highest sensor response

Sequence: CFHCVWLGMEC
phage display selection outcome, experiment 1 (D-TNFR-1 CRD2 [1]; CX9C library): enriched
